The results in this text go back to a melting point compilation (Tetko et al.; mined from patent text by program, amines drawn as free bases though some values may be those of a salt).

Regarding `COc1ccc(NC(=O)c2ccc(-c3ccc(-c4noc(C)n4)cc3)c(Cl)c2)cc1N1CCN(C)CC1`, the melting point (usually the temperature of the solid-liquid transition) lay within 93 to 95 °C.

`O=C(O)c1cc(S(=O)(=O)c2ccccc2)ccc1[N+](=O)[O-]` had a melting point of 210 to 212 °C.

The compound `CC(C)(C)OC(=O)c1[nH]c2cc(Cl)cc(Cl)c2c1C=C1CON(c2ccccc2)C1=O` yielded a melting point of 120 °C.

`CN1/C(=C\C(=S)NC(=O)c2ccccc2)C(C)(C)c2ccccc21` registered a melting point of 108 to 110 °C.

As for `COc1cc(OCCN(C)C)ccc1/C=C/c1cc(/C=C/c2ccc3cc[nH]c3c2)[nH]n1`, the melting point was 109 to 112 °C.

On to `COc1ccc2c(c1F)C(=O)N(Nc1ccncc1)C2=O`, for which the melting point lay within 206 to 210 °C.

Regarding `COc1ccc2cc(-c3csc(Cc4c(Cl)cccc4Cl)n3)ccc2c1`, the melting point lay in the range of 136 to 138 °C.

Compound `NC(=O)c1sc2nccc(N3CCCN(c4ccc(C(F)(F)F)cc4)CC3)c2c1N` had a melting point of 204 to 208 °C.

In turn, `CCCCC1(CCCC)CCc2c(OCc3ccccc3C(N)=O)cccc2C1O` (stereo unspecified) returned a melting point of 73 to 75 °C.

`CC(=O)NC[C@H]1CN(c2ccc(N3CCC(n4cc(C=O)nn4)CC3)c(F)c2)C(=O)O1` had a melting point of 168 to 170 °C.

Regarding `O=C(Nc1ccc(-n2nc(C(F)(F)F)cc2C(F)(F)F)cc1)c1cc(Cl)cnc1Cl`, the melting point was 228 to 229 °C.

As to `O=C(Nc1ccc2ccc(Cl)nc2n1)c1cccc(F)c1`, the melting point worked out at 202 °C.

Consider `COc1cc(C(C)=O)ccc1OCCCN1CCN(c2nn(C(=O)c3ccccc3)c3cccc(F)c23)CC1`, for which the melting point fell in the range of 138 to 140 °C.

For the compound `CC(c1ccc(-c2ccccc2)c(F)c1)c1nc(CC#N)no1` (stereo unspecified), the melting point is 111 to 112 °C.

In turn, `CCCCCCCCNC(=O)CP(=O)(O)O` displayed a melting point of 142 to 143 °C.

`O=C(c1ccccc1C(F)(F)F)N1CCCN(CC2=Nc3cccc4c(=O)[nH]nc(c34)N2)CC1` displayed a melting point of 140 to 142 °C.

Turning to `C(=Nc1ccc(-c2c[nH]cn2)cc1)Nc1ccccc1`, the melting point fell in the range of 123 to 124 °C.

Take `CC(C)COC(c1cc(Cl)cc([N+](=O)[O-])c1O)c1cc(Cl)cc([N+](=O)[O-])c1O`: the melting point was found to be 95 °C.

`CCCCCCCCCCCCCCOc1ccc(CCNC(=O)Cc2cccc(CBr)c2)cc1`: the melting point lay in the range of 75 to 77 °C.

Turning to `O=C1c2ccc(O)cc2C(=O)N1c1ccccc1`, the melting point is 116 to 118 °C.

In the case of `O=C(O)CCCCCc1nn(-c2ccc(F)cc2)c2c1CCC2`, the melting point was in the range of 64 to 67 °C.

Take `CCc1nnc(N2CCN(c3ccc(N4CC(CNC(C)=O)OC4=O)cc3F)CC2)s1` (stereo unspecified): the melting point lay within 237 to 238 °C.

In turn, `O=C(O)c1cnc2cc([N+](=O)[O-])ccc2n1` returned a melting point of 208 to 210 °C.

Turning to `O=C1c2ccccc2C(Cc2ccnc(Br)c2)(Cc2ccnc(Br)c2)c2ccccc21`, the melting point fell in the range of 182 to 183 °C.

The compound `CN(C)Cc1ccc(NC(=O)Nc2ccc(Oc3cc(Cl)ncn3)cc2)cc1C(F)(F)F` showed a melting point of 98 to 105 °C.

In the case of `Nc1c(Cl)ncnc1Nn1ccc2ccccc21`, the melting point is 175 to 176 °C.

On to `CC(C)(C)C(Cl)=NNc1ccc([N+](=O)[O-])cc1`, for which the melting point fell in the range of 94.5 to 95.5 °C.

For `Cc1noc(NS(=O)(=O)c2c(Cl)sc(Cl)c2Br)c1Br`, the melting point lay in the range of 146 to 149 °C.

The compound `CN(C(=O)OC(C)(C)C)[C@H](Cc1ccc(Cl)c(Cl)c1)[C@H](O)CC(=O)N[C@@H]1CCCCNC1=O` returned a melting point of 187 °C.

As for `CC(=O)Oc1ccc(C(=O)Oc2ccc(OC(=O)c3ccc(OC(C)=O)cc3)c(C)c2)cc1`, the melting point was 128 to 130 °C.

With `O=c1[nH]c2ccccc2n1CCCN1CCC(OC(c2ccccc2)c2ccccc2)CC1`, the melting point was found to be 149 °C.

The compound `CC(=O)OCC1OC(n2cc(I)c(=O)[nH]c2=O)C(OC(C)=O)C1OC(C)=O` (stereo unspecified) gave a melting point of 175 to 179 °C.

On to `O=C(CBr)CS(=O)(=O)C(c1ccc(Cl)cc1)c1ccc(Cl)cc1`, for which the melting point fell in the range of 122 to 123 °C.

On to `CCCN(CCC)Cc1nnc(-c2ncn3c2[C@@H]2CCCN2C(=O)c2c(Cl)cccc2-3)o1`, for which the melting point is 158 to 160 °C.

`CCOCc1nc2c(N)nc3ccccc3c2n1C[C@H]1COC(C)(C)O1` returned a melting point of 130 to 131 °C.

`CCc1c(Cc2c[nH]c3ccccc23)[nH]c(=O)c(CC(C)C)[n+]1[O-]`: the melting point lay in the range of 212 to 214 °C.

Take `CS(=O)(=O)C(=C1CN(C(c2ccccc2)c2ccccc2)C1)c1cc(F)cc(F)c1`: the melting point was 172 °C.

Turning to `Nc1ccc(-c2cc(=O)c(C(=O)O)cn2-c2cccnc2)cc1`, the melting point lay within 207 to 208 °C.

On to `Cc1ccc(NC(=O)c2ccc(CN3CC[N+](C)([O-])CC3)cc2)cc1Nc1nccc(-c2cccnc2)n1`, for which the melting point is 154 to 158 °C.

Regarding `N#Cc1cc(C2=Nc3ccc(C4CC4)cc3NC(=O)C2)ccn1`, the melting point fell in the range of 227 to 230 °C.

The compound `O=C1CCOc2ccc(-c3ccccc3)cc21` returned a melting point of 74 to 75 °C.

Regarding `CCOc1nc2c(C)sc(C(=O)OC)c2n1Cc1ccc(-c2ccccc2C#N)cc1`, the melting point lay in the range of 155 to 156 °C.

`CC(=O)Oc1ccc2sc(S(N)(=O)=O)cc2c1` registered a melting point of 129 to 132 °C.

In the case of `CCC(=O)NCCC1CNc2ccc3c(c21)CCO3` (stereo unspecified), the melting point fell in the range of 96 to 98 °C.

In turn, `Cc1c(-c2ccc(O)cc2)n(Cc2ccc(OCCN3C(C)CCCC3C)cc2)c2ccc(O)cc12` (stereo unspecified) yielded a melting point of 114 to 121 °C.

In turn, `NC(=O)c1sc2ncnc(-c3cccc(NC(=O)Nc4ccncc4)c3)c2c1N` yielded a melting point of 177 to 179 °C.

`CCCCS(=O)(=O)NC(=O)c1ccc(C(=O)NCCO)nc1` yielded a melting point of 168 to 169 °C.

Turning to `Cc1oc(-c2ccccc2)nc1CCOc1ccc(C[C@@H](C(=O)O)n2ccc(-c3ccccc3)c2)cc1`, the melting point lay in the range of 146 to 147 °C.

`Cc1ccc2c(c1)C(CCCCN1CCN(c3ccc(Cl)cc3)CC1)C(=O)N2` (stereo unspecified) returned a melting point of 159 to 161 °C.

The compound `Cc1cnc2c(N)cccc2c1Cl` displayed a melting point of 112 to 114 °C.

Turning to `CCOC(=O)c1cc(OC(C)=O)c2c(c1)c1ccccc1n2C`, the melting point is 123 to 125 °C.

Consider `O=c1oc2ccccc2c(O)c1CCOc1ccccc1`, for which the melting point is 157 to 159 °C.

`CCOCCOCCn1ccc2c3c(c(-c4ccccc4Cl)cc21)C(=O)NC3=O` showed a melting point of 173 °C.

Regarding `CC(C)CN1CCc2ccc(C(=O)CCC(=O)N3CCC(c4ccc(Cl)cc4)CC3)cc2CC1`, the melting point fell in the range of 137 to 138 °C.

The compound `O=C(NCc1ccc(C(=O)C(F)(F)F)cc1)c1cccnc1Oc1cccnc1` yielded a melting point of 134 to 136 °C.

Regarding `O=C(NC(C(=O)O)c1ccc2c(c1)CCO2)OCc1ccccc1` (stereo unspecified), the melting point was in the range of 121 to 123 °C.

Take `O=[N+]([O-])c1ccccc1-c1nc2ccccc2n1CC(O)CO` (stereo unspecified): the melting point lay in the range of 182 to 183 °C.

With `CC(=O)Nc1nc(CCc2ccc(CCNC(=N)N)s2)cs1`, the melting point is 122 to 123 °C.

Consider `COc1cc(COc2ncccc2CO)ccc1OCc1nc(-c2ccccc2)oc1C`, for which the melting point was 143 to 144 °C.

On to `Cc1cc(-c2ccc(S(C)(=O)=O)cc2)n(-c2ccc(-c3ccco3)cc2)c1`, for which the melting point was in the range of 133 to 135 °C.

`CCC(CC)N(O)C(=O)NCCCC(C)CNC(=O)N(O)C(CC)CC` (stereo unspecified) showed a melting point of 124 to 125 °C.

In turn, `COc1ccc(C(=O)Cc2c(Cl)cncc2Cl)c2c1OC(c1ccccc1)(c1ccccc1)O2` registered a melting point of 156 to 157 °C.

Compound `CC(C)(C)OC(=O)N[C@H]1CCN(OCc2ccccc2)C1=O` showed a melting point of 113 to 114 °C.

For the compound `COC(=O)COc1cccc(CN(C)c2cnc(-c3ccccc3)c(-c3ccccc3)n2)c1`, the melting point lay in the range of 132 to 134 °C.

Regarding `CC(C)n1c2cc(Cl)ccc2c2oc(C(=O)Cl)cc21`, the melting point lay in the range of 141 to 142 °C.

The compound `Cc1cccc(NC(=O)NCC(=O)N(CC(=O)OC(C)(C)C)c2ccccc2-c2ccccc2)c1` came in with a melting point of 177 °C.

In the case of `COc1ccc(NN=C(Sc2cc(Cl)cc(Cl)c2)C(C)=O)cc1`, the melting point fell in the range of 168 to 170 °C.

The compound `Cn1nc(-c2ccncc2)n(C)c1=S` yielded a melting point of 150 to 152 °C.

`Cc1ncc(C(=O)NCCOCCO[N+](=O)[O-])s1` yielded a melting point of 47 to 48 °C.

Compound `CN(C)CCc1cccc(N2C(=O)N(c3ccc(Cl)cc3Cl)Cc3cnc(Nc4ccccc4)nc32)c1` registered a melting point of 101 to 105 °C.

In the case of `Cn1c(COc2ccc(CC3SC(=O)NC3=O)cc2)nc2ccc(Oc3ccc(NC(=S)Nc4ccccc4)cc3)cc21` (stereo unspecified), the melting point was in the range of 130 to 131 °C.

`CN1CCN(c2ccnc3sc(C(N)=O)c(N)c23)CC1` came in with a melting point of 260 to 263 °C.

Take `CC(=O)c1ccc(=O)[nH]c1C=CN(C)C`: the melting point fell in the range of 238 to 240 °C.

The compound `C[Si](C)(C)c1c(Br)cnc2c1CCO2` had a melting point of 92 to 94 °C.

As to `O=C(Nc1ccc(-c2c[nH]c(=O)cn2)cc1)OCc1ccccc1`, the melting point lay in the range of 240 to 244 °C.

In turn, `CC(C)(n1cncn1)C(O)(Cc1nc[nH]n1)c1ccc(C(F)(F)F)cc1F` (stereo unspecified) registered a melting point of 174 to 175 °C.

As for `O=C(Nc1c([N+](=O)[O-])cnn1-c1c(Cl)cc(C(F)(F)F)c(Cl)c1Cl)C(Cl)Cl`, the melting point was 112 to 120 °C.

Consider `O=C(CSCCOc1ccccc1)NNC(=O)c1ccc(Cl)nc1`, for which the melting point is 136 to 138 °C.

In turn, `O=C1COc2cc(NC(=O)C(=O)N3CCC(C(O)c4ccccc4)CC3)ccc2N1` (stereo unspecified) displayed a melting point of 195 to 197 °C.

`Cc1cc(=O)n(-c2cc(C(=O)OC(C)C)c(Cl)cc2F)c(=O)[nH]1` had a melting point of 134 to 136 °C.

On to `CNC(=S)NS(=O)(=O)c1cc(CCNC(=O)c2cc(Cl)ccc2OC)ccc1OC`, for which the melting point was in the range of 190 to 193 °C.

`CCCc1nccn1-c1nc(-c2ccc(Cl)cc2)c(CCC(=O)O)o1` had a melting point of 174 to 175 °C.

As for `OCCSc1nc(-c2ccccc2)c2cc(Cl)ccc2n1`, the melting point turned out to be 124 °C.

Compound `CCCCCC=C1SC(=S)N(CC(=O)O)C1=O` registered a melting point of 136 to 140 °C.

For `COc1ccc(/C=C(\C#N)c2ccccc2Br)cc1OC1CCCC1`, the melting point was 100 to 103 °C.

In turn, `CC(C)(C)OC(=O)N1CCC(c2ccc(N3C[C@@H](CCO)OC3=O)cc2F)CC1` registered a melting point of 120 to 122 °C.
